Results on 13 compounds are retold here after ChEMBL document CHEMBL1140783, “Design and synthesis of 4-quinolinone 2-carboxamides as calpain inhibitors” (Bioorg Med Chem Lett, 2008).

The target in the experiment is T1, Calpain-1 catalytic subunit (Homo sapiens, UniProt P07384).
T1 sequence (P07384 whole entry): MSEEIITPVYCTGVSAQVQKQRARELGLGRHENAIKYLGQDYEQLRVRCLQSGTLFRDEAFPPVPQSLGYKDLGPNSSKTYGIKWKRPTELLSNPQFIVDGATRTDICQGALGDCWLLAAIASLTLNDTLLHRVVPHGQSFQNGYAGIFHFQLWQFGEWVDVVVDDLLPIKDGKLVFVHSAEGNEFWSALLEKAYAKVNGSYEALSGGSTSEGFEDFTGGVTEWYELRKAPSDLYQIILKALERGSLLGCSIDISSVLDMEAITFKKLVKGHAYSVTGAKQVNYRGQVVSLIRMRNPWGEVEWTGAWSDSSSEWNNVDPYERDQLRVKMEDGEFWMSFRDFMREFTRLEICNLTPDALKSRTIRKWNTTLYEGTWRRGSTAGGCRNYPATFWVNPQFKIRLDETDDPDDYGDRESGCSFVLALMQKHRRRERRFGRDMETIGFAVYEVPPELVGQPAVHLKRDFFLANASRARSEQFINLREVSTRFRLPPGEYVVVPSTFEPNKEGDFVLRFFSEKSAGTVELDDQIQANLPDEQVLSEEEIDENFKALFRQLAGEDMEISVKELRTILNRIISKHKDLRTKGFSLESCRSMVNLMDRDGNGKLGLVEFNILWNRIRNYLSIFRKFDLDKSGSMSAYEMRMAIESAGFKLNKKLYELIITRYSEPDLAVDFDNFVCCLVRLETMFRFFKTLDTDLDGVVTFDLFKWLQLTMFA
The experiment can be described thus: Inhibition of human mu-calpain.
On to `CCNC(=O)C(=O)[C@H](Cc1ccccc1)NC(=O)c1nc2ccccc2c(O)c1C`, for which the IC50 turned out to be 40.2 µM. That is a double-digit micromolar value.

For the compound `COc1ccc(CNC(=O)C(=O)[C@H](Cc2ccccc2)NC(=O)c2nc3ccccc3c(O)c2C)cc1`, the IC50 worked out at 3.81 µM.

`Cc1c(C(=O)N[C@@H](Cc2ccccc2)C(=O)C(=O)NCc2ccccn2)nc2ccccc2c1O`: the IC50 came out at 7.72 µM.

As to `COc1ccc(CCNC(=O)C(=O)[C@H](Cc2ccccc2)NC(=O)c2[nH]c3ccccc3c(=O)c2C)cc1`, the half-inhibitory concentration (IC50) was 0.73 µM. Against the preceding compound, the IC50 is about 11-fold lower.

On to `Cc1c(C(=O)N[C@@H](Cc2ccccc2)C(=O)C(N)=O)oc2ccccc2c1=O`, for which the IC50 was found to be 0.04 µM.

On to `Cc1c(C(=O)N[C@@H](Cc2ccccc2)C(=O)C(N)=O)nc2ccccc2c1O`, for which half-maximal inhibition (IC50) was put at 0.71 µM.

In turn, `Cc1c(C(=O)N[C@@H](Cc2ccccc2)C(=O)C(=O)NCCc2ccccn2)[nH]c2ccccc2c1=O` yielded an IC50 of 6.28 µM.

`Cc1c(C(=O)N[C@@H](Cc2ccccc2)C(=O)C(=O)NCc2ccccc2)[nH]c2ccccc2c1=O`: the half-inhibitory concentration (IC50) was found to be 5.01 µM.

`COc1ccc(CNC(=O)C(=O)[C@H](Cc2ccccc2)NC(=O)c2[nH]c3ccccc3c(=O)c2C)cc1OC` displayed an IC50 of 1.78 µM.

Turning to `CNC(=O)C(=O)[C@H](Cc1ccccc1)NC(=O)c1[nH]c2ccccc2c(=O)c1C`, the half-maximal inhibitory concentration (IC50) came out at 8.62 µM.

In the case of `Cc1c(C(=O)N[C@@H](Cc2ccccc2)C(=O)C(=O)NC(C)C)nc2ccccc2c1O`, the IC50 was over 50 µM.

`Cc1c(C(=O)N[C@@H](Cc2ccccc2)C(=O)C(=O)NCCc2ccccc2)nc2ccccc2c1O` registered an IC50 of 3.71 µM.

In turn, `Cc1c(C(=O)N[C@@H](Cc2ccccc2)C(=O)C(=O)NCc2ccc(F)cc2)[nH]c2ccccc2c1=O` had an IC50 of 5.63 µM.

In general, IC50 refers to the midpoint of a concentration-inhibition curve. Lower therefore signals greater potency in that assay.
